US9163256B2, “Mutant receptors and their use in a nuclear receptor-based inducible gene expression system” (priority 2004, dated 2015)
pEC50: −log10 of the molar value.

Legend:
CfEcR-DEF mutant A110P = CfEcR-DEF mutant A110P (Choristoneura fumiferana, UniProt O77255, A393P); assay: cell-based; conditions: mutant A110P; for pEC50: read-out: EC50; for Rel Max FI: relative to max fold induction of GS-E ligand
Summary of the method: (§1)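 Mouse NIH3T3 cells were treated with ligand in DMSO, then transfected with GAL4 luciferase reporter (0.16 μg/well) plus mutant CfEcR-DEF receptor constructs (0.04 μg each/well). Cells were kept at 37° C in 5% FBS and lysed 40 hours after ligand addition for dual-luciferase measurement. Fold induction = ligand RLU ÷ DMSO RLU.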

CfEcR-DEF mutant F48L = CfEcR-DEF mutant F48L (Choristoneura fumiferana, UniProt O77255, F331L); assay: cell-based; conditions: mutant F48L; for pEC50: read-out: EC50; for Rel Max FI: relative to max fold induction of GS-E ligand
Summary of the method: as §1

CfEcR-DEF mutant M125C = CfEcR-DEF mutant M125C (Choristoneura fumiferana, UniProt O77255, M408C); assay: cell-based; conditions: mutant M125C
Summary of the method: as §1

CfEcR-DEF mutant M125E = CfEcR-DEF mutant M125E (Choristoneura fumiferana, UniProt O77255, M408E); assay: cell-based; conditions: mutant M125E; for pEC50: read-out: EC50
Summary of the method: as §1

CfEcR-DEF mutant M125L = CfEcR-DEF mutant M125L (Choristoneura fumiferana, UniProt O77255, M408L); assay: cell-based; conditions: mutant M125L; for pEC50: read-out: EC50
Summary of the method: as §1

CfEcR-DEF mutant M125R = CfEcR-DEF mutant M125R (Choristoneura fumiferana, UniProt O77255, M408R); assay: cell-based; conditions: mutant M125R; for pEC50: read-out: EC50
Summary of the method: as §1

CfEcR-DEF mutant M92E = CfEcR-DEF mutant M92E (Choristoneura fumiferana, UniProt O77255, M375E); assay: cell-based; conditions: mutant M92E; for pEC50: read-out: EC50
Summary of the method: as §1

CfEcR-DEF mutant R95H = CfEcR-DEF mutant R95H (Choristoneura fumiferana, UniProt O77255, R378H); assay: cell-based; conditions: mutant R95H; for pEC50: read-out: EC50
Summary of the method: as §1

CfEcR-DEF mutant R95M = CfEcR-DEF mutant R95M (Choristoneura fumiferana, UniProt O77255, R378M); assay: cell-based; conditions: mutant R95M; for pEC50: read-out: EC50
Summary of the method: as §1

CfEcR-DEF mutant T52E = CfEcR-DEF mutant T52E (Choristoneura fumiferana, UniProt O77255, T335E); assay: cell-based; conditions: mutant T52E; for pEC50: read-out: EC50
Summary of the method: as §1

[1] = target: CfEcR-DEF mutant V107I/Y127E/A110P (Choristoneura fumiferana, UniProt O77255, A393P/V390I/Y410E); assay: cell-based; conditions: mutant V107I/Y127E/A110P; for pEC50: read-out: EC50; for Rel Max FI: relative to max fold induction of GS-E ligand
Summary of the method: as §1

CfEcR-DEF mutant N119F = assay: GAL4-driven luciferase reporter assay in NIH3T3 cells; assay type: cell-based, Choristoneura fumiferana
Procedure: This construct was prepared in the same way as in switch 1.1 above except wild-type CfEcR-DEF was replaced with mutant CfEcR-DEF comprising a ligand binding domain comprising a substitution mutation selected from Table 1 below.
DNAs were transfected into mouse NIH3T3 cells (ATCC) as follows. Standard methods for culture and maintenance of the cells were followed. Cells were harvested and plated 96-well plates at 2,500 cells per well, in 50 μL of growth medium containing 10% fetal bovine serum (FBS). Twenty-four hours later, the cells were treated with 35 μL of serum-free growth medium containing either dimethylsulfoxide (DMSO; control) or a DMSO solution of ligand. The cells were then transfected using Superfect (Qiagen Inc.) transfection reagent. For each well, 0.625 μL of Superfect was mixed with 14.2 μL of serum-free growth medium. 0.16 μg of reporter construct and 0.04 μg of each receptor construct were added to the transfection reagent mix. The contents of the transfection mix were mixed in a vortex mixer and let stand at room temperature for 30 minutes. At the end of incubation, 15 μL of transfection mix was added to the cells. The cells were maintained at 37° C. and 5% CO2 for 48 hours in 5% FBS.
Reporter Assays: Cells were harvested 40 hours after adding ligands. 125 μL of passive lysis buffer (part of Dual-Luciferase reporter assay system from Promega Corporation) were added to each well of the […] plate. The plates were placed on a rotary shaker for 15 minutes. Twenty μL of lysate were assayed. Luciferase activity was measured using Dual-Luciferase reporter assay system from Promega Corporation following the manufacturer's instructions. Fold induction (FI) activities were calculated by dividing relative light units (“RLU”) in ligand treated cells with RLU in DMSO treated cells (untreated control).

CfEcR-DEF mutant M125R, sequence (P28702 299-449): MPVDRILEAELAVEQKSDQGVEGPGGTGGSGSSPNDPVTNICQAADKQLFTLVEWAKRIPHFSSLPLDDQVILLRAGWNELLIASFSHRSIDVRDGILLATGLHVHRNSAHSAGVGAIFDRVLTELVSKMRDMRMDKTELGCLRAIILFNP
CfEcR-DEF mutant M125R, sequence (O77255 entry or part of it M408R): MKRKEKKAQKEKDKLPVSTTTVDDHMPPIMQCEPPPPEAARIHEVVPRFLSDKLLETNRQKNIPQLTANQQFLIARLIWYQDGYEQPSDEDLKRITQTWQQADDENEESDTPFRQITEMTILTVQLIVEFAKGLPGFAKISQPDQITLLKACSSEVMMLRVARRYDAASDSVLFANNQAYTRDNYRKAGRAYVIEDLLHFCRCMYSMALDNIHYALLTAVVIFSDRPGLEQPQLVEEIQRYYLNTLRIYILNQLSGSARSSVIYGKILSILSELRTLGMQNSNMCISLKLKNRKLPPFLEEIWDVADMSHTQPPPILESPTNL
CfEcR-DEF mutant R95H, sequence (P28702 299-449): as the sequence (P28702 299-449) above
CfEcR-DEF mutant R95H, sequence (O77255 entry or part of it R378H): as the sequence (O77255 entry or part of it M408R) above, with R160H, R190M counted along it
CfEcR-DEF mutant R95M, sequence (P28702 299-449): as the sequence (P28702 299-449) above
CfEcR-DEF mutant R95M, sequence (O77255 entry or part of it R378M): as the sequence (O77255 entry or part of it M408R) above, with R160M, R190M counted along it
CfEcR-DEF mutant M92E, sequence (P28702 299-449): as the sequence (P28702 299-449) above
CfEcR-DEF mutant M92E, sequence (O77255 entry or part of it M375E): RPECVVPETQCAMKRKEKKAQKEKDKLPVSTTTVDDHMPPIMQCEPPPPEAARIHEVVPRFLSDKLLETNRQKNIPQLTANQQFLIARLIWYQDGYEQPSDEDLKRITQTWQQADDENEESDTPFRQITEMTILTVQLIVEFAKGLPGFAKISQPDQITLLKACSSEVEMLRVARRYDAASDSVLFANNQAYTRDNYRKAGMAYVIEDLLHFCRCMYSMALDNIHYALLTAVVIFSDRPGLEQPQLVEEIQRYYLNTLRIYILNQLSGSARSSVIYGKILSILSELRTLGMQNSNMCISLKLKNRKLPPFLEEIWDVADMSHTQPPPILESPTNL
CfEcR-DEF mutant V107I/Y127E/A110P, sequence (P28702 299-449, stated change not applied): as the sequence (P28702 299-449) above
CfEcR-DEF mutant V107I/Y127E/A110P, sequence (O77255 entry or part of it V390I/A393P/Y410E): as the sequence (O77255 entry or part of it M408R) above, with V172I, A175P, R190M, Y192E counted along it
CfEcR-DEF mutant F48L, sequence (P28702 299-449): as the sequence (P28702 299-449) above
CfEcR-DEF mutant F48L, sequence (O77255 entry or part of it F331L): as the sequence (O77255 entry or part of it M408R) above, with F113L, R190M counted along it
CfEcR-DEF mutant M125L, sequence (P28702 299-449): as the sequence (P28702 299-449) above
CfEcR-DEF mutant M125L, sequence (O77255 entry or part of it M408L): as the sequence (O77255 entry or part of it M408R) above, with R190L counted along it
CfEcR-DEF mutant M125E, sequence (O77255 entry or part of it M408E): as the sequence (O77255 entry or part of it M375E) above, with E169M, M202E counted along it
CfEcR-DEF mutant M125E, sequence (P28702 299-449, further chain): as the sequence (P28702 299-449) above
CfEcR-DEF mutant T52E, sequence (O77255 entry or part of it T335E): as the sequence (O77255 entry or part of it M408R) above, with T117E, R190M counted along it
CfEcR-DEF mutant T52E, sequence (P28702 299-449, further chain): as the sequence (P28702 299-449) above
CfEcR-DEF mutant A110P, sequence (O77255 entry or part of it A393P): as the sequence (O77255 entry or part of it M375E) above, with E169M, A187P counted along it
CfEcR-DEF mutant A110P, sequence (P28702 299-449, stated change not applied, further chain): as the sequence (P28702 299-449) above
CfEcR-DEF mutant M125C, sequence (O77255 entry or part of it M408C): as the sequence (O77255 entry or part of it M375E) above, with E169M, M202C counted along it
CfEcR-DEF mutant M125C, sequence (P28702 299-449, further chain): as the sequence (P28702 299-449) above

SMILES | pEC50 (CfEcR-DEF mutant A110P) | Rel Max FI (CfEcR-DEF mutant A110P) | pEC50 (CfEcR-DEF mutant F48L) | Rel Max FI (CfEcR-DEF mutant F48L) | Rel Max FI (CfEcR-DEF mutant M125C) | Rel Max FI (CfEcR-DEF mutant M125E) | pEC50 (CfEcR-DEF mutant M125E) | Rel Max FI (CfEcR-DEF mutant M125L) | pEC50 (CfEcR-DEF mutant M125L) | Rel Max FI (CfEcR-DEF mutant M125R) | pEC50 (CfEcR-DEF mutant M125R) | Rel Max FI (CfEcR-DEF mutant M92E) | pEC50 (CfEcR-DEF mutant M92E) | Rel Max FI (CfEcR-DEF mutant R95H) | pEC50 (CfEcR-DEF mutant R95H) | Rel Max FI (CfEcR-DEF mutant R95M) | pEC50 (CfEcR-DEF mutant R95M) | Rel Max FI (CfEcR-DEF mutant T52E) | pEC50 (CfEcR-DEF mutant T52E) | pEC50 [1] | other results
CC(C)(O)CC[C@@H](O)[C@](C)(O)[C@H]1CC[C@@]2(O)C3=CC(=O)[C@@H]4C[C@@H](O)[C@@H](O)C[C@]4(C)[C@H]3CC[C@]12C [20E, 20-hydroxyecdysone] | < 4.48 | 0 | < 4.48 | 0 | 0.22 | 0 | < 4.48 | 0 | < 4.48 | 0.01 | < 4.48 | 0 | < 4.48 | 0 | < 4.48 | 0 | < 4.48 | 0 | < 4.48 | < 4.48 | Rel Max FI [1]: 0.00
CC(C)CC[C@@H](O)[C@](C)(O)[C@H]1CC[C@@]2(O)C3=CC(=O)[C@@H]4C[C@@H](O)[C@@H](O)C[C@]4(C)[C@H]3CC[C@]12C [PonA, ponasterone A] | < 4.48 | 0 | ~5.00 | 0.59 | 0.28 | 0 | < 4.48 | 0 | < 4.48 | 0 | ~5.10 | 0.01 | < 4.48 | 0.03 | < 4.48 | 0 | < 4.48 | 0 | < 4.48 | < 4.48 | Fold increase over WT (CfEcR-DEF mutant N119F; 1.6 nM ligand): 1.33; Fold increase over WT (CfEcR-DEF mutant N119F; 8 nM ligand): 1.7; Fold increase over WT (CfEcR-DEF mutant N119F; 40 nM ligand): 9.42; Fold increase over WT (CfEcR-DEF mutant N119F; 200 nM ligand): 6.50; Fold increase over WT (CfEcR-DEF mutant N119F; 1 μM ligand): 3.00; Rel Max FI [1]: 0.01
